Source: PMC9388906, “Dual inhibition of the Echinococcus multilocularis energy metabolism” (Frontiers in Veterinary Science, 2022)
Like-named read-outs stand apart in the source and are kept apart here.

Experiments:
[1] = tested on: E. multilocularis metacestodes (isolate Sval); assay: PGI assay (damage marker release), metacestodes, isolate Sval; type: cell-based, Echinococcus multilocularis; settings: for cytotoxicity at 10 µM: Echinococcus multilocularis, 120 h, read-out: Metacestodes, PGI assay, relative to positive control Tx-100; for Activity in PGI assay (activity call): threshold >20% of Tx-100
Experimental: (§1) To assess the in vitro efficacy of ELQs against E. multilocularis, (a) the damage-marker phosphoglucose isomerase (PGI) assay was applied against metacestodes, and (b) the germinal layer (GL) cell viability assay was applied to measure effects on isolated GL cells. Both assays are described in more detail below. The drug testing strategy was as follows: PGI assay was first conducted for overview screening at 10 μM with the parasite isolates H95 and Sval. The GL cell viability assay was performed at 0.1 μM with both isolates H95 and Sval.
(§2) The PGI assay measures the amount of PGI that metacestodes release into the medium when damaged ([17], [32]). The purification and in vitro drug incubation of E. multilocularis metacestodes was conducted according to Stadelmann et al. ([32]). In short, cultures were applied for in vitro drug testing at the age of 6-8 weeks. E. multilocularis metacestodes were therefore purified by the addition of 2% saccharose and washed extensively with PBS. Purified metacestodes were suspended 1:3 with DMEM (without phenol red, supplemented with 100 U/mL penicillin, 100 μg/mL streptomycin) and distributed in 48-well plates (1 mL/well, thus 300 μL pure metacestode vesicles per well). […] The corresponding DMSO concentration was used as negative control and Tx-100 (0.1% final concentration) was used for total damage (positive control). […] After 5 days, relative PGI activities were measured and calculated as percentage of the Tx-100 control as described previously in Rufener et al. ([17]). They were calculated as mean values and standard deviations for each triplicate. […] EC50 measurements were performed twice, and averages and standard deviations of these repeated tests are given.

[2] = tested on: E. multilocularis metacestodes (isolate H95); assay: PGI assay (damage marker release), metacestodes, isolate H95; type: cell-based, Echinococcus multilocularis; settings: for cytotoxicity at 10 µM: read-out: Metacestodes, PGI assay, relative to positive control Tx-100; for EC50: read-out: EC50 metacestodes
Experimental: as §1, §2

[3] = tested on: E. multilocularis GL cells (isolate Sval); assay: GL cell viability assay (CellTiter-Glo), isolate Sval; type: cell-based, Echinococcus multilocularis; settings: for viability at 0.1 µM: Echinococcus multilocularis, 120 h, read-out: GL cells, viability via ATP measurements, relative to DMSO control
Experimental: as §1
(§3) The isolation of E. multilocularis GL cells was done as described previously ([17]) with minor modifications. Fifteen units of GL cells were distributed to each well of a 384 well plate in a total volume of 12.5 μL conditioned medium. The different ELQs were added to the wells to 0.1 μM, in quadruplicates. As a negative control 0.1% DMSO was used. The 384-well plate was incubated for 5 days at 37°C under humid nitrogen atmosphere. Thereafter, viability of the GL cells under different drug treatments was assessed by CellTiter-Glo® (Promega AG, Dübendorf, Switzerland). The CellTiter-Glo reagent was complemented with 1% Tx-100. The luciferase bioluminescence was measured at 530 nm by using the Enspire multilabel reader (PerkinElmer Life Sciences, Schwerzenbach, Switzerland). Using Microsoft Excel, the blank values were subtracted from the experimental values and the relative viability compared to DMSO was calculated. Viabilities were calculated as mean values and standard deviations for each quadruplicate.

[4] = tested on: E. multilocularis GL cells (isolate H95); assay: GL cell viability assay (CellTiter-Glo), isolate H95; type: cell-based, Echinococcus multilocularis; settings: for viability at 0.1 µM: Echinococcus multilocularis, 120 h, read-out: GL cells, viability via ATP measurements, relative to DMSO control
Experimental: as §1, §3

[5] = tested on: Reuber rat hepatoma (Rh) cells; assay: Mammalian cell toxicity, Alamar Blue assay; type: cell-based
Experimental: Compounds were added in a serial dilution (30–0.23 μM, 1:2 dilution steps) and in triplicates. Plates were incubated at 37°C, 5% CO2 and humid atmosphere for 5 days. Resazurin was added to a final concentration of 10 mg/L to each well, and fluorescence measured at 530 nm on an Enspire multilabel plate reader over 3 h. By using Microsoft Office Excel 2010 and a logit-log transformation of the relative growth, IC50 values were calculated. The test was performed twice for each compound, and respective averages and standard deviations are given.

[6] = tested on: E. multilocularis metacestodes; assay: PGI assay, single and combination treatment under normoxic and anaerobic conditions; type: cell-based, Echinococcus multilocularis; settings: 10 μM each; 5 days; anaerobic (0% O2)
Experimental: The PGI assay measures the amount of PGI that metacestodes release into the medium when damaged ([17], [32]). The purification and in vitro drug incubation of E. multilocularis metacestodes was conducted according to Stadelmann et al. ([32]). In short, cultures were applied for in vitro drug testing at the age of 6-8 weeks. E. multilocularis metacestodes were therefore purified by the addition of 2% saccharose and washed extensively with PBS. Purified metacestodes were suspended 1:3 with DMEM (without phenol red, supplemented with 100 U/mL penicillin, 100 μg/mL streptomycin) and distributed in 48-well plates (1 mL/well, thus 300 μL pure metacestode vesicles per well). […] The corresponding DMSO concentration was used as negative control and Tx-100 (0.1% final concentration) was used for total damage (positive control). […] After 5 days, relative PGI activities were measured and calculated as percentage of the Tx-100 control as described previously in Rufener et al. ([17]). They were calculated as mean values and standard deviations for each triplicate. EC50 calculations were calculated based on logit-log transformed values in Microsoft Office Excel 2010. EC50 measurements were performed twice, and averages and standard deviations of these repeated tests are given.
For double inhibition of the mitochondrial energy pathways of E. multilocularis, quinazoline as an inhibitor of the anaerobic MD ([29]) was applied in combination with ELQ-400 as an inhibitor of the ETC. Both compounds were tested either alone or in combination at 10 μM with the above-described PGI assay for 5 days for their activity against E. multilocularis metacestodes. PGI assays were done in triplicates and two times independently. […] Results of the assays were calculated as mean values and standard deviations for each biological triplicate were calculated as relative percentage to the Tx-100 control. To assess direct effects on the MD, succinate levels were measured in the supernatants of the PGI assay, as described below. […]

[7] = tested on: E. multilocularis metacestodes; assay: Succinate concentrations in culture supernatants (malate dismutation activity); type: cell-based, Echinococcus multilocularis; settings: 10 μM; 5 days; anaerobic
Experimental: Both compounds were tested either alone or in combination at 10 μM with the above-described PGI assay for 5 days for their activity against E. multilocularis metacestodes. PGI assays were done in triplicates and two times independently. […] To assess direct effects on the MD, succinate levels were measured in the supernatants of the PGI assay, as described below. To determine whether differences between groups were significant, data was subjected to student's t-test analysis and P-values below 0.05 are given.
Succinate measurements in supernatants of drug-treated E. multilocularis metacestodes was performed with the “Succinic Acid Assay Kit” (Megazyme, Bray, Ireland). […] 20 μL of each diluted (1:20) sample or standard was used in triplicate for succinate measurements in 96-well plates (flat bottom, Greiner Bio-One GmbH, Frickenhausen, Germany). The reaction mix buffer was prepared as described in the supplier manual: per well 180 μL H2O, 20 μL solvent 1 (buffer, pH 8.4, sodium azide 0.02% w/v), 20 μL solvent 2 (NADH plus stabilizer), 20 μL solvent 3 (ATP, PEP, and CoA) and 2 μL solvent 4 (pyruvate kinase plus L-lactate dehydrogenase suspension) were added. After a 180 s pre-incubation time, a first measurement at 340 nm was done on an EnSpire multilabel plate reader (PerkinElmer Life Sciences, Schwerzenbach, Switzerland). 10 μL solvent 5 (succinyl-CoA synthetase suspension; 1:10 diluted) were then added to each well and the plate was read at 340 nm for 1 h every minute. […] Succinate levels are shown as mean values with standard deviations of biological triplicates. To determine whether differences between groups were significant, data was subjected to student's t-test analysis and P-values below 0.05 are given.

[8] = tested on: E. multilocularis metacestodes; design: method as in PMID 30396011; settings: TEM of metacestodes; cited from earlier work
[9] = isolate Sval, 10 μM, 5 days, normoxic, mean (SD) of triplicates, active if >20%
[10] = isolate H95, 10 μM, 5 days, normoxic, mean (SD) of triplicates, active if >20%
[11] = isolate Sval, 0.1 μM, 5 days, nitrogen atmosphere, mean (SD), active if <30%
[12] = isolate H95, 0.1 μM, 5 days, nitrogen atmosphere, mean (SD), active if <30%
[13] = Echinococcus multilocularis, 120 h, isolate H95, 10 μM, 5 days, normoxic, mean (SD) of triplicates, active if >20%
[14] = Echinococcus multilocularis, 120 h
[15] = Echinococcus multilocularis, 120 h, isolate H95, PGI assay, 5 days, range tested 30–0.12 μM, mean (SD) of two tests
[16] = Rattus norvegicus, 120 h, confluent Rh cells, Alamar blue, 5 days, range tested 30–0.23 μM, mean (SD) of two tests, read-out: IC50 Rh confluent
[17] = Rattus norvegicus, 120 h, preconfluent Rh cells, Alamar blue, 5 days, range tested 30–0.23 μM, mean (SD) of two tests, read-out: IC50 Rh preconfluent

For COc1cc2[nH]c(C)c(-c3ccc(Oc4ccc(OC(F)(F)F)cc4)cc3)c(=O)c2cc1Cl [ELQ-300], the “Metacestodes, PGI assay, relative to positive control Tx-100” value [1, 9] was 7.6 (1.1) %, the “Metacestodes, PGI assay, relative to positive control Tx-100” value [2, 10] was 6.6 (2.2) % and the “GL cells, viability via ATP measurements, relative to DMSO control” value (“GL cells … relative to DMSO control” below) [3, 11] was 46.9 (9.6) %. For the same compound, the “GL cells … relative to DMSO control” value [4, 12] was 84.0 (7.0) %.
In the case of CCCCCCCCCCCc1c(C)[nH]c2cc(OC)c(Cl)cc2c1=O [ELQ-434], the cytotoxicity at 10 µM [1, 9] is reported as 0.6%, the cytotoxicity at 10 µM [2, 13] is reported as 0.4% and the viability at 0.1 µM [3, 11] is reported as 81.3%. It also gave a viability at 0.1 µM [4, 12] of 33.3%.
Work on CCCCCCCc1c(C)[nH]c2cc(OC)c(F)cc2c1=O [ELQ-433] yielded a cytotoxicity at 10 µM [1, 9] of 1.8%, a cytotoxicity at 10 µM [2, 13] of 4.3% and a viability at 0.1 µM [3, 11] of 62.1%. The viability at 0.1 µM [4, 12] was 96.4%.
With Cc1[nH]c2ccccc2c(=O)c1-c1ccc(Oc2ccc(OC(F)(F)F)cc2)cc1 [ELQ-271] the “Metacestodes, PGI assay, relative to positive control Tx-100” value [1, 9] was 56.9 (4.3) %, the “Activity in PGI assay (activity call)” value ([1]; isolate Sval, 10 μM) was “activity” and the “Metacestodes, PGI assay, relative to positive control Tx-100” value [2, 10] was 33 (1.7) %. For the same compound, the EC50 ([2]; isolate H95, PGI assay, 5 days, range tested 30–0.12 μM, mean (SD) of two tests) was 0.24 µM, the “GL cells … relative to DMSO control” value [3, 11] was 25.4 (7.2) % and the “GL cells … relative to DMSO control” value [4, 12] was 2.7 (1.6) %. The IC50 ([5]; confluent Rh cells, Alamar blue, 5 days, range tested 30–0.23 μM, mean (SD) of two tests, read-out: IC50 Rh confluent) was > 30 µM and the IC50 ([5]; preconfluent Rh cells, Alamar blue, 5 days, range tested 30–0.23 μM, mean (SD) of two tests, read-out: IC50 Rh preconfluent) was 8.64 µM.
Work on CCCCCCCCCCCc1c(C)[nH]c2ccccc2c1=O [ELQ-436] yielded a cytotoxicity at 10 µM [1, 9] of 3.1%, a cytotoxicity at 10 µM [2, 13] of 3.4% and a viability at 0.1 µM [3, 11] of 16.4%. The viability at 0.1 µM [4, 12] was 14%.
In the case of CCCCCCCc1c(C)[nH]c2cc(F)cc(F)c2c1=O [ELQ-121], the cytotoxicity at 10 µM [1] is reported as 20.9%, the “Activity in PGI assay (activity call)” value ([1]; isolate Sval, 10 μM) is reported as “activity” and the EC50 [2, 14] is reported as 1.19 µM. The cytotoxicity at 10 µM [2, 14] was 15.2%, the viability at 0.1 µM [3] was 7.3% and the viability at 0.1 µM [4] was 1%. The IC50 ([5]; Rattus norvegicus, 120 h, read-out: IC50 Rh confluent) was > 30 µM and the IC50 ([5]; Rattus norvegicus, 120 h, read-out: IC50 Rh preconfluent) was > 30 µM.
CCCCCCCc1c(C)[nH]c2cccc(F)c2c1=O [ELQ-136] gave a cytotoxicity at 10 µM [1, 9] of 7%, a cytotoxicity at 10 µM [2, 13] of 21.4% and an EC50 [2, 15] of 0.22 µM. For the same compound, the viability at 0.1 µM [3, 11] was 15.1%, the viability at 0.1 µM [4, 12] was 8.4% and the IC50 [5, 16] was > 30 µM. The IC50 [5, 17] was > 30 µM.
In the case of COc1cc2[nH]c(C)c(-c3ccc(Oc4ccc(OC(F)(F)F)cc4)cc3)c(=O)c2cc1F [ELQ-316], the “Metacestodes, PGI assay, relative to positive control Tx-100” value [1, 9] is reported as 4.6 (1.3) %, the “Metacestodes, PGI assay, relative to positive control Tx-100” value [2, 10] is reported as 21.4 (0.1) % and the “GL cells … relative to DMSO control” value [3, 11] is reported as 58 (5.3) %. For the same compound, the “GL cells … relative to DMSO control” value [4, 12] was 81.1 (9.5) %.
In the case of c1ccc2ncncc2c1 [quinazoline, reference compound], the “PGI release of metacestodes relative to Tx-100” value [6] is reported as “no PGI release” and the “Release of succinate by metacestodes compared to DMSO control” value [7] is reported as “significant reduction”.
In the case of CC(C)(C)[C@H]1CC[C@H](CC2=C(O)C(=O)c3ccccc3C2=O)CC1 [buparvaquone], the “Concentration already affecting the parasite ultrastructure (electron dense mitochondrial matrix)” value [8] is listed as 0.3 µM.
For CCCCCCCc1c(C)[nH]c2ccccc2c1=O [ELQ-127], the cytotoxicity at 10 µM [1, 9] was 2.5%, the cytotoxicity at 10 µM [2, 13] was 11.7% and the viability at 0.1 µM [3, 11] was 40.4%. For the same compound, the viability at 0.1 µM [4, 12] was 17.2%.
With CCCCCCCCCCCc1c(C)[nH]c2cc(F)cc(F)c2c1=O [ELQ-437] the cytotoxicity at 10 µM [1, 9] was 33.1%, the “Activity in PGI assay (activity call)” value ([1]; isolate Sval, 10 μM) was “activity” and the cytotoxicity at 10 µM [2, 13] was 37.6%. For the same compound, the EC50 [2, 15] was 1.71 µM, the viability at 0.1 µM [3, 11] was 19.1% and the viability at 0.1 µM [4, 12] was 19.7%. For the same compound, the IC50 [5, 16] was > 30 µM and the IC50 [5, 17] was > 30 µM.
Work on CCCCCCCc1c(C)[nH]c2cc(OC)ccc2c1=O [ELQ-100] yielded a cytotoxicity at 10 µM [1, 9] of 0%, a cytotoxicity at 10 µM [2, 13] of 1.4% and a viability at 0.1 µM [3, 11] of 57.9%. It also gave a viability at 0.1 µM [4, 12] of 100%.
In the case of CCCCCCCCCCCc1c(C)[nH]c2cc(OC)c(F)cc2c1=O [ELQ-435], the cytotoxicity at 10 µM [1, 9] is reported as 0%, the cytotoxicity at 10 µM [2, 13] is reported as 2.6% and the viability at 0.1 µM [3, 11] is reported as 80.1%. The viability at 0.1 µM [4, 12] was 15.6%.
